Data as given in ChEMBL document CHEMBL6121007, “Design, synthesis and evaluation of pyrimidine derivatives as sedative-hypnotic agents” (Eur J Med Chem, 2025).
The source made the active and inactive calls. No cut-off for these calls is given here.

Assays:
Format in all cases: functional, organism-based
[1] = test system: Mus musculus; experiment: Sedative-hypnotic activity in mouse assessed as reduction in grip strength score at 50 mg/kg, ip administrated as single dose and measured after 30 mins by grip strength test
[2] = test system: Mus musculus; experiment: Sedative-hypnotic activity in mouse assessed as decrease in number of square crossing at 50 mg/kg, ip administrated as single dose and measured after 30 mins by open field test
[3] = test system: Mus musculus; experiment: Sedative-hypnotic activity in mouse assessed as increase in latency time of first step out of center square at 5 mg/kg, ip administrated as single dose and measured after 30 mins by open field test

Structure (SMILES) | Activity [1] | Activity [2] | Activity [3]
Cc1nc2ccc(Nc3nccc(Nc4ccc5sc(C)nc5c4)n3)cc2[nH]1 | Active | Active | –
CCn1c2ccccc2c2cc(Nc3ccnc(Nc4ccc5c(c4)c4ccccc4n5CC)n3)ccc21 | Active | Active | –
CCc1ccc(Nc2nccc(Nc3ccc4c(c3)c3ccccc3n4CC)n2)cc1 | Active | Active | –
CCn1c2ccccc2c2cc(Nc3ccnc(Nc4cc(C)cc(F)c4)n3)ccc21 | Active | Active | –
CCn1c2ccccc2c2cc(Nc3ccnc(Nc4ccc5sc(C)nc5c4)n3)ccc21 | Active | Active | –
CCn1cc(Nc2nccc(Nc3ccc4c(c3)c3ccccc3n4CC)n2)cn1 | Active | Active | –
CN1C(=O)CN=C(c2ccccc2)c2cc(Cl)ccc21 | – | – | inactive
Cc1nc2cc(Nc3ccnc(Nc4ccc5sc(C)nc5c4)n3)ccc2s1 | Active | Active | –
CCn1c2ccccc2c2cc(Nc3ccnc(Nc4ccc(F)c(C)c4)n3)ccc21 | Active | Active | –
CCn1c2ccccc2c2cc(Nc3ccnc(Nc4ccc(C)cc4)n3)ccc21 | Active | Active | –
CCn1c2ccccc2c2cc(Nc3ccnc(Nc4cc(OC)cc(OC)c4)n3)ccc21 | Active | Active | –
CCn1c2ccccc2c2cc(Nc3ccnc(Nc4ccc(N5CCCCC5)cc4)n3)ccc21 | Active | Active | –
CCn1c2ccccc2c2cc(Nc3ccnc(Nc4ccc(C(F)(F)F)cc4)n3)ccc21 | Active | Active | –
CCn1c2ccccc2c2cc(Nc3ccnc(Nc4ccc5nc(C)[nH]c5c4)n3)ccc21 | Active | Active | –
CCn1c2ccccc2c2cc(Nc3ccnc(Nc4ccc5[nH]c(C)cc5c4F)n3)ccc21 | Active | Active | –
CCn1c2ccccc2c2cc(Nc3ccnc(Nc4ccc(CC(C)C)cc4)n3)ccc21 | Active | Active | –
CCn1c2ccccc2c2cc(Nc3ccnc(Nc4ccc(C(C)C)cc4)n3)ccc21 | Active | Active | –
COc1cc(Nc2nccc(Nc3ccc4sc(C)nc4c3)n2)ccc1O | Active | Active | –
Cc1cc2c(F)c(Nc3nccc(Nc4ccc5sc(C)nc5c4)n3)ccc2[nH]1 | Active | Active | –
Cc1nc2cc(Nc3ccnc(Nc4ccc(F)c(C)c4)n3)ccc2s1 | Active | Active | –
Cc1nc2cc(Nc3ccnc(Nc4ccc5c(cnn5C)c4)n3)ccc2s1 | Active | Active | –
CCn1c2ccccc2c2cc(Nc3ccnc(Nc4ccc5c(cnn5C)c4)n3)ccc21 | Active | Active | –
COC(=O)c1ccc(Nc2nccc(Nc3ccc4sc(C)nc4c3)n2)cc1OC | Active | inactive | –
CCn1c2ccccc2c2cc(Nc3nccc(Nc4ccc5sc(C)nc5c4)n3)ccc21 | Active | Active | –
CCn1c2ccccc2c2cc(Nc3ccnc(Nc4cnn(C)c4)n3)ccc21 | Active | Active | –
